Measurements published in US9713616B2, “Pharmaceutical compositions comprising L-leucovorin” (Spectrum Pharmaceuticals, Inc., priority 2012, dated 2017).

Legend:
Format in all cases: physicochemical
[1] = Example 1: dissolved concentration after about one hour of sonication, then stirring at 5° C.; conditions: sonicated about one hour, stirred at 5° C.
Experimental: L-leucovorin calcium (Merck) or racemic leucovorin calcium (Sigma) was added to water or aqueous sodium chloride (0.83%) and sonicated for about one hour. The mixtures were then stirred for about 20 hours at 5° C. The concentration of dissolved L-leucovorin calcium or racemic leucovorin calcium was determined at 15 min., 30 min., 1 hour, and 20 hours after sonication began.

[2] = Example 5: dissolved concentration after sonication at 40° C. for about half an hour, then stirring at 25° C. for 20 hours; conditions: sonicated at 40° C. about half an hour, stirred at 25° C.
Experimental: L-leucovorin calcium (Merck) or racemic leucovorin calcium (USP) was added to water or aqueous sodium chloride (0.83%) and sonicated at 40° C. for about half an hour. The mixture was then stirred at 25° C. for 20 hours. The concentration of dissolved L-leucovorin calcium or racemic leucovorin calcium was determined at two hours and 20 hours.

[3] = Example 2: dissolved concentration after sonication at 40° C., then stirring at 5° C. for 20 hours; conditions: sonicated at 40° C., stirred at 5° C.
Experimental: L-leucovorin calcium (Merck) or racemic leucovorin calcium (USP) was added to water or aqueous sodium chloride (0.83%) and sonicated at 40° C. to dissolve the L-leucovorin calcium or racemic leucovorin calcium. The solutions were then stirred at 5° C. for 20 hours. The concentration of dissolved L-leucovorin calcium or racemic leucovorin calcium was determined at 2 hours and 20 hours after stirring began.

[4] = Example 4: dissolved concentration after 1 hour of sonication, then stirring at 25° C.; conditions: sonicated 1 hour, stirred at 25° C.
Experimental: L-leucovorin calcium (Merck) or racemic leucovorin calcium (Sigma) was added to water or aqueous sodium chloride (0.83%) and sonicated for 1 hour. The mixture was then stirred for an additional 19 hours 25° C. The concentration of dissolved L-leucovorin calcium or racemic leucovorin calcium was determined at 15 min., 30 min., 1 hour, or 20 hours after stirring began.

[5] = Example 3: dissolved concentration after sonication at 40° C., stirring at 5° C., nitrogen purge and sealed vial at 2 hours; conditions: sonicated at 40° C., stirred at 5° C.
Experimental: L-leucovorin calcium (Merck) or racemic leucovorin (USP) calcium was added to water or aqueous sodium chloride (0.83%) and sonicated at 40° C. to dissolve the L-leucovorin calcium or racemic leucovorin calcium. The solutions were then stirred at 5° C. for 15 hours. At 2 hours, the solutions were purged with nitrogen gas and placed in a sealed vial. The concentration of dissolved L-leucovorin calcium or racemic leucovorin calcium was determined at two hours and 15 hours after sonication began.

[6] = Example 6: dissolved concentration after sonication at 40° C. for one hour, stirring at 25° C., nitrogen purge and sealed vial after 2 hours; conditions: sonicated at 40° C. one hour, stirred at 25° C.
Experimental: L-leucovorin calcium (Merck) or racemic leucovorin (USP) calcium was added to water or aqueous sodium chloride (0.83%) and sonicated at 40° C. for one hour to dissolve the L-leucovorin calcium or racemic leucovorin calcium. The solutions were then stirred at 25° C. for an additional hour. After 2 hours, the solutions were purged with nitrogen and placed in a sealed vial. The mixtures were then stirred for an additional 18 hours. The concentration of dissolved L-leucovorin calcium or racemic leucovorin calcium was determined at two hours and 20 hours after sonication began.

Assay (concentration of dissolved compound) ([1]; H2O, 15 min.)	Assay (concentration of dissolved compound) ([1]; H2O, 30 min.)	Assay (concentration of dissolved compound) ([1]; H2O, 1 hr)	Assay (concentration of dissolved compound) ([1]; H2O, 20 hrs)	Assay (concentration of dissolved compound) ([1]; NaCl (0.83%), 15 min.)	Assay (concentration of dissolved compound) ([1]; NaCl (0.83%), 30 min.)	Assay (concentration of dissolved compound) ([1]; NaCl (0.83%), 1 hr)	Assay (concentration of dissolved compound) ([1]; NaCl (0.83%), 20 hrs)	Assay (concentration of dissolved compound) ([2]; H2O, 20 hrs)	Assay (concentration of dissolved compound) ([2]; NaCl (0.83%), 20 hrs)	Assay (concentration of dissolved compound) ([3]; H2O, 20 hrs)	Assay (concentration of dissolved compound) ([3]; NaCl (0.83%), 20 hrs)	Assay (concentration of dissolved compound) ([4]; H2O, 15 min.)	Assay (concentration of dissolved compound) ([4]; H2O, 30 min.)	Assay (concentration of dissolved compound) ([4]; H2O, 1 hr)	Assay (concentration of dissolved compound) ([4]; H2O, 20 hrs)	Assay (concentration of dissolved compound) ([4]; NaCl (0.83%), 15 min.)	Assay (concentration of dissolved compound) ([4]; NaCl (0.83%), 30 min.)	Assay (concentration of dissolved compound) ([4]; NaCl (0.83%), 1 hr)	Assay (concentration of dissolved compound) ([4]; NaCl (0.83%), 20 hrs)	Structure (SMILES)	also measured
7.5 mg/mL	8.4 mg/mL	8.0 mg/mL	11.9 mg/mL	9.6 mg/mL	10.0 mg/mL	13.4 mg/mL	17.4 mg/mL	31.1 mg/mL	42.1 mg/mL	26.2 mg/mL	39.6 mg/mL	14.9 mg/mL	15.1 mg/mL	16.1 mg/mL	23.6 mg/mL	20.2 mg/mL	20.4 mg/mL	21.6 mg/mL	32.4 mg/mL	Nc1nc(=O)c2c([nH]1)NCC(CNc1ccc(C(=O)NC(CCC(=O)O)C(=O)O)cc1)N2C=O [L-Leucovorin, L-leucovorin calcium]	Assay (concentration of dissolved compound) ([2]; H2O, 2 hrs): 31.9 mg/mL; Assay (concentration of dissolved compound) ([2]; NaCl (0.83%), 2 hrs): 42.3 mg/mL; Assay (concentration of dissolved compound) ([3]; H2O, 2 hrs): 31.9 mg/mL; Assay (concentration of dissolved compound) ([3]; NaCl (0.83%), 2 hrs): 42.3 mg/mL; Assay (concentration of dissolved compound) ([5]; H2O, 2 hrs): 40.4 mg/mL; Assay (concentration of dissolved compound) ([5]; H2O, 15 hrs): 21.2 mg/mL; Assay (concentration of dissolved compound) ([5]; NaCl (0.83%), 2 hrs): 49.2 mg/mL; Assay (concentration of dissolved compound) ([5]; NaCl (0.83%), 15 hrs): 35.6 mg/mL; Assay (concentration of dissolved compound) ([6]; H2O, 2 hrs): 40.4 mg/mL; Assay (concentration of dissolved compound) ([6]; H2O, 20 hrs): 42.3 mg/mL; Assay (concentration of dissolved compound) ([6]; NaCl (0.83%), 2 hrs): 49.2 mg/mL; Assay (concentration of dissolved compound) ([6]; NaCl (0.83%), 20 hrs): 53.1 mg/mL
16.7 mg/mL	22.0 mg/mL	15.8 mg/mL	3.3 mg/mL	22.6 mg/mL	22.9 mg/mL	23.2 mg/mL	7.4 mg/mL					52.9 mg/mL	53.3 mg/mL	50.1 mg/mL	9.0 mg/mL	42.1 mg/mL	41.9 mg/mL	39.6 mg/mL	14.2 mg/mL	Nc1nc(=O)c2c([nH]1)NCC(CNc1ccc(C(=O)N[C@@H](CCC(=O)[O-])C(=O)[O-])cc1)N2C=O.[Ca+2] (mixture of isomers) [Sigma Leucovorin Calcium, racemic leucovorin calcium]	
								13.4 mg/mL	17.4 mg/mL	4.2 mg/mL	7.2 mg/mL									Nc1nc(=O)c2c([nH]1)NCC(CNc1ccc(C(=O)N[C@@H](CCC(=O)[O-])C(=O)[O-])cc1)N2C=O.[Ca+2] (mixture of isomers) [USP Leucovorin Calcium, racemic leucovorin calcium]	Assay (concentration of dissolved compound) ([5]; H2O, 2 hrs): 3.6 mg/mL; Assay (concentration of dissolved compound) ([5]; H2O, 15 hrs): 3.8 mg/mL; Assay (concentration of dissolved compound) ([5]; NaCl (0.83%), 2 hrs): 8.4 mg/mL; Assay (concentration of dissolved compound) ([5]; NaCl (0.83%), 15 hrs): 8.6 mg/mL; Assay (concentration of dissolved compound) ([6]; H2O, 2 hrs): 10.1 mg/mL; Assay (concentration of dissolved compound) ([6]; H2O, 20 hrs): 10.8 mg/mL; Assay (concentration of dissolved compound) ([6]; NaCl (0.83%), 2 hrs): 16.1 mg/mL; Assay (concentration of dissolved compound) ([6]; NaCl (0.83%), 20 hrs): 17.1 mg/mL
